T/C data for twelve compounds are collected here from PubChem BioAssay AID212 (DTP/NCI, 2004).

This experiment relates to BDF1 mice, colon carcinoma 38 sc, T/C %. Nature of the experiment: NCI In Vivo Anticancer Drug Screen. Data for tumor model Colon Carcinoma 38 (subcutaneous) in B6D2F1 (BDF1) mice. To be noted: endpoint: median tumor weight (est.), higher = larger tumour. A digest of the protocol: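 Transplantable tumor in mice; compound-treated vs vehicle-dosed controls. Measured survival or tumor size; value = T ÷ C.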

Setting [1] is: dose: 200.0 mg/kg/injection, schedule: Q07DX002 (ip), vehicle: Klucel (hydroxypropylcellulose) (HPC).
The mark [2] stands for this setting: dose: 400.0 mg/kg/injection, schedule: Q07DX002 (ip), vehicle: Klucel (hydroxypropylcellulose) (HPC).
Setting [3] is: dose: 50.0 mg/kg/injection, schedule: Q07DX002 (ip), vehicle: saline with Tween-80.
[4] abbreviates: dose: 100.0 mg/kg/injection, schedule: Q07DX002 (ip), vehicle: saline with Tween-80.
Where [5] appears, read: dose: 200.0 mg/kg/injection, schedule: Q07DX002 (ip), vehicle: saline with Tween-80.

Values joined by “and” are separate entries in the source; they are usually repeats but may differ in a detail not shown here. Equal values may be shown once. Records with an inconclusive call do not appear.

In the case of `C[C@]12CCC(=O)C=C1CC[C@@H]1[C@@H]2[C@@H](O)C[C@@]2(C)[C@H]1CC[C@]2(O)C(=O)CO`, the T/C by setting is: (dose: 40.0 mg/kg/injection, schedule: Q07DX003 (ip), vehicle: Klucel (hydroxypropylcellulose) (HPC)) 73 % of control; (dose: 80.0 mg/kg/injection, schedule: Q07DX003 (ip), vehicle: Klucel (hydroxypropylcellulose) (HPC)) 76 % of control; (dose: 160.0 mg/kg/injection, schedule: Q07DX003 (ip), vehicle: Klucel (hydroxypropylcellulose) (HPC)) 123 % of control and 104 % of control; under setting [1], 63 % of control; (dose: 320.0 mg/kg/injection, schedule: Q07DX003 (ip), vehicle: Klucel (hydroxypropylcellulose) (HPC)) 118 % of control; under setting [2], 74 % of control. In addition, the T/C reads like this: (dose: 640.0 mg/kg/injection, schedule: Q07DX003 (ip), vehicle: Klucel (hydroxypropylcellulose) (HPC)) 79 % of control and 103 % of control; (dose: 800.0 mg/kg/injection, schedule: Q07DX002 (ip), vehicle: Klucel (hydroxypropylcellulose) (HPC)) 93 % of control; (dose: 800.0 mg/kg/injection, schedule: Q07DX003 (ip), vehicle: Klucel (hydroxypropylcellulose) (HPC)) 57 % of control; (dose: 1200.0 mg/kg/injection, schedule: Q07DX002 (ip), vehicle: Klucel (hydroxypropylcellulose) (HPC)) 70 % of control.
As for `O=C1C=CN(C2OC(CO)C(O)C2O)C(=O)C1` (centres undefined), the T/C is 121 % of control (dose: 25.0 mg/kg/injection, schedule: Q07DX003 (ip), vehicle: saline); 73 % of control (dose: 100.0 mg/kg/injection, schedule: Q07DX003 (ip), vehicle: saline); 163 % of control (dose: 200.0 mg/kg/injection, schedule: Q07DX003 (ip), vehicle: saline).
As to `COc1nc(=O)n(C2C=CC(=O)O2)cc1F` (centres undefined), the T/C is 117 % of control (dose: 12.5 mg/kg/injection, schedule: Q07DX002 (ip), vehicle: saline); 113 % of control (dose: 25.0 mg/kg/injection, schedule: Q07DX002 (ip), vehicle: saline); 109 % of control (dose: 50.0 mg/kg/injection, schedule: Q07DX002 (ip), vehicle: saline).
For `C[C@@H]1C[C@@H]([C@H](O)CC2CC(=O)NC(=O)C2)C(=O)[C@@H](C)C1`, the T/C runs as follows: under setting [3], 162 % of control; under setting [4], 90 % of control; under setting [5], 60 % of control.
Consider `NC(=S)N/N=C\c1ncccc1OCc1cccc(N)c1`, for which the T/C is, setting by setting: (dose: 25.0 mg/kg/injection, schedule: Q07DX002 (ip), vehicle: distilled water + Tween-80) 80 % of control; (dose: 50.0 mg/kg/injection, schedule: Q07DX002 (ip), vehicle: distilled water + Tween-80) 79 % of control; (dose: 100.0 mg/kg/injection, schedule: Q07DX002 (ip), vehicle: distilled water + Tween-80) 78 % of control; (dose: 200.0 mg/kg/injection, schedule: Q07DX002 (ip), vehicle: distilled water + Tween-80) 71 % of control; (dose: 400.0 mg/kg/injection, schedule: Q07DX002 (ip), vehicle: distilled water + Tween-80) 80 % of control.
Turning to `Nc1ccc(S(=O)(=O)Nc2cnc3c(Cl)cccc3n2)cc1`, for the setting “dose: 250.0 mg/kg/injection, schedule: Q07DX002 (ip), vehicle: DMSO”, the T/C is 82 % of control.
For `Cc1ccc2c(c1)N=C(Nc1ccccc1)N=S2(C)=O` (centres undefined), the T/C runs as follows: (dose: 12.5 mg/kg/injection, schedule: Q07DX002 (ip), vehicle: saline with Tween-80) 76 % of control; (dose: 25.0 mg/kg/injection, schedule: Q07DX002 (ip), vehicle: saline with Tween-80) 85 % of control; under setting [3], 82 % of control; under setting [5], 105 % of control.
For `CC1=C2CC(C)(C)/C=C\C(=O)/C(C)=C\C3=C[C@H](C)C[C@]3(O2)C1=O`, the T/C was 80 % of control (dose: 1.5 mg/kg/injection, schedule: Q07DX002 (ip), vehicle: Klucel (hydroxypropylcellulose) (HPC)); 100 % of control (dose: 3.0 mg/kg/injection, schedule: Q07DX002 (ip), vehicle: Klucel (hydroxypropylcellulose) (HPC)); 157 % of control (dose: 6.0 mg/kg/injection, schedule: Q07DX002 (ip), vehicle: Klucel (hydroxypropylcellulose) (HPC)).
Turning to `Oc1c(Cl)cc(C(c2cc(Cl)c(O)c(Cl)c2)C(c2cc(Cl)c(O)c(Cl)c2)c2cc(Cl)c(O)c(Cl)c2)cc1Cl`, the T/C was 115 % of control and 99 % of control (dose: 12.5 mg/kg/injection, schedule: Q07DX002 (ip), vehicle: Klucel (hydroxypropylcellulose) (HPC)); 123 % of control (dose: 25.0 mg/kg/injection, schedule: Q07DX002 (ip), vehicle: Klucel (hydroxypropylcellulose) (HPC)); 96 % of control (dose: 50.0 mg/kg/injection, schedule: Q07DX002 (ip), vehicle: Klucel (hydroxypropylcellulose) (HPC)); 95 % of control and 104 % of control (dose: 100.0 mg/kg/injection, schedule: Q07DX002 (ip), vehicle: Klucel (hydroxypropylcellulose) (HPC)); 63 % of control and 86 % of control under setting [1]; 57 % of control and 82 % of control under setting [2].
Turning to `S=C=NCCc1ccccc1`, the T/C under setting [4] was 82 % of control and 105 % of control.
In the case of `CC(C)[NH-].CC(C)[NH-].[Cl][Pt+2][Cl]`, the T/C by setting is: (dose: 3.12 mg/kg/injection, schedule: Q07DX002 (ip), vehicle: dextrose) 15 % of control; (dose: 3.13 mg/kg/injection, schedule: Q07DX002 (ip), vehicle: dextrose) 122 % of control; (dose: 6.25 mg/kg/injection, schedule: Q07DX002 (ip), vehicle: dextrose) 77 % of control; (dose: 6.25 mg/kg/injection, schedule: Q07DX002 (ip), vehicle: other) 104 % of control; (dose: 12.5 mg/kg/injection, schedule: Q07DX002 (ip), vehicle: dextrose) 71 % of control; (dose: 12.5 mg/kg/injection, schedule: Q07DX002 (ip), vehicle: other) 53 % of control. In addition, the T/C was 79 % of control and 88 % of control (dose: 25.0 mg/kg/injection, schedule: Q07DX002 (ip), vehicle: dextrose); 84 % of control (dose: 25.0 mg/kg/injection, schedule: Q07DX002 (ip), vehicle: other); 58 % of control and 71 % of control (dose: 50.0 mg/kg/injection, schedule: Q07DX002 (ip), vehicle: dextrose); 122 % of control (dose: 50.0 mg/kg/injection, schedule: Q07DX002 (ip), vehicle: other); 52 % of control (dose: 100.0 mg/kg/injection, schedule: Q07DX002 (ip), vehicle: other).
With `CC1=C[S+](c2ccccc2)c2cccc3cc4ccccc4c1c23` (centres undefined), the T/C reads like this: (dose: 0.5 mg/kg/injection, schedule: Q07DX002 (ip), vehicle: saline with Tween-80) 109 % of control; (dose: 1.0 mg/kg/injection, schedule: Q07DX002 (ip), vehicle: saline with Tween-80) 162 % of control; (dose: 2.0 mg/kg/injection, schedule: Q07DX002 (ip), vehicle: saline with Tween-80) 151 % of control; (dose: 4.0 mg/kg/injection, schedule: Q07DX002 (ip), vehicle: saline with Tween-80) 114 % of control.
